The text below walks through data of patent publication US8101601B2, “Aminoacyl prodrug derivatives and medicaments for the treatment of thromboembolitic disorders” (Bayer Pharma Aktiengesellschaft, priority 2007, dated 2012).

By solubility is commonly meant the concentration that dissolves in the medium under given conditions. Read a high solubility as much dissolved substance.

Converted amounts (≈) assume the structure as drawn. Counter-ions that a name gives are not always drawn. A value given as a limit tells only on which side of the number the result lay.

Data set [1] is described as follows: Stability in buffer at various pH values (HPLC, 37° C., 24 h). The class given is physicochemical. How it is done: 0.3 mg of the test substance is weighed into a 2 ml HPLC vial and 0.5 ml of acetonitrile is added. The substance is dissolved by putting the sample vessel in an ultrasonic bath for about 10 seconds. Then 0.5 ml of the respective buffer solution is added, and the sample is again treated in the ultrasonic bath.
• pH 4.0:1 liter of Millipore water is adjusted to pH 4.0 with 1 N hydrochloric acid; • pH 7.4: 90 g of sodium chloride, 13.61 g of potassium dihydrogen phosphate and 83.35 g of 1 M sodium hydroxide solution are made up to 1 liter with Millipore water and then diluted 1:10.
5 μl portions of the test solution are analysed by HPLC for their content of unchanged test substance every hour over a period of 24 hours at 37° C. The percentage areas of the appropriate peaks are used for quantification.
Agilent 1100 with DAD (G1314A), binary pump (G1312A), autosampler (G1329A), column oven (G1316A), thermostat (G1330A); column: Kromasil 100 C18, 125 mm×4.6 mm, 5 μm; column temperature: 30° C.; eluent A: water+5 ml of perchloric acid/liter, eluent B: acetonitrile.
The ratios of the peak areas (F) at the respective time points in relation to the peak areas at the starting time are shown in Table 2 for representative exemplary embodiments: […]

The nature of data set [2]: Determination of the solubility (suspension shaken 24 h at room temperature, HPLC). Format: physicochemical. To be noted: dilute hydrochloric acid (pH 4), pH 4, aqueous buffer, thermodynamic from solid, room temperature, 24 h. The procedure: […] This suspension is shaken at room temperature for 24 h. After ultracentrifugation at 224 000 g for 30 min, the supernatant is diluted with DMSO and analysed by HPLC. A two-point calibration plot of the test compound in DMSO is used for quantification.
Agilent 1100 with DAD (G1315A), quat. pump (G1311A), autosampler CTC HTS PAL, degasser (G1322A) and column thermostat (G1316A); column: Zorbax Extend-C18 3.5μ; temperature: 40° C.; eluent A: water+5 ml of perchloric acid/liter, eluent B: acetonitrile; flow rate: 0.7 ml/min; gradient: 0-0.5 min 98% A, 2% B; ramp 0.5-4.5 min 10% A, 90% B; 4.5-6 min 10% A, 90% B; ramp 6.5-6.7 min 98% A, 2% B; 6.7-7.5 min 98% A, 2% B.

The mark [3] stands for this setting: buffer pH 4, 37° C., hydrobromide.

As for `NCC(=O)OCC(=O)N(C[C@H]1CN(c2ccc(N3CCOCC3=O)cc2)C(=O)O1)C(=O)c1ccc(Cl)s1` [Example 1, 2-[[(5-Chloro-2-thienyl)carbonyl]({(5S)-2-oxo-3-[4-(3-oxomorpholin-4-yl)phenyl]-1,3-oxazolidin-5-yl}methyl)amino]-2-oxoethyl glycinate hydrochloride], in data set [1] (buffer pH 4, 37° C.), the “% test substance after 4 h [F(t = 4 h) × 100/F(t = 0 h)]” value (shortened to “% test substance after 4 h”) is reported as 100% and the “% Test substance after 24 h [F(t = 24 h) × 100/F(t = 0 h)]” value (“% Test substance after 24 h” for short) worked out at 99%. Moreover, in data set [1] (buffer pH 7.4, 37° C.), the “% test substance after 4 h” value came to 49% and the “% Test substance after 24 h” value amounted to 3%. Also, the solubility at 24 h in data set [2] amounted to 320 µg/mL.
For `CC(C)(N)C(=O)OCC(=O)N(C[C@H]1CN(c2ccc(N3CCOCC3=O)cc2)C(=O)O1)C(=O)c1ccc(Cl)s1` [Example 2, 2-[[(5-Chloro-2-thienyl)carbonyl]({(5S)-2-oxo-3-[4-(3-oxomorpholin-4-yl)phenyl]-1,3-oxazolidin-5-yl}methyl)amino]-2-oxoethyl-2-methylalaninate hydrochloride] the same measures were 100%, 100%, 96%, 80% and greater than 500 µg/mL.
On to `CC(C)[C@H](N)C(=O)OCC(=O)N(C[C@H]1CN(c2ccc(N3CCOCC3=O)cc2)C(=O)O1)C(=O)c1ccc(Cl)s1` [Example 3, 2-[[(5-Chloro-2-thienyl)carbonyl]({(5S)-2-oxo-3-[4-(3-oxomorpholin-4-yl)phenyl]-1,3-oxazolidin-5-yl}methyl)amino]-2-oxoethyl L-valinate hydrochloride], for which, in data set [1] (buffer pH 4, 37° C.), the “% test substance after 4 h” value worked out at 100% and the “% Test substance after 24 h” value came to 99%. In data set [1] (buffer pH 7.4, 37° C.), the “% test substance after 4 h” value is on record as 88% and the “% Test substance after 24 h” value was found to be 48%. Also, in data set [2], the solubility at 24 h came to 340 µg/mL.
For the molecule `O=C(OCC(=O)N(C[C@H]1CN(c2ccc(N3CCOCC3=O)cc2)C(=O)O1)C(=O)c1ccc(Cl)s1)[C@@H]1CCCN1` [Example 4, 2-[[(5-Chloro-2-thienyl)carbonyl] ({(5S)-2-oxo-3-[4-(3-oxomorpholin-4-yl)phenyl]-1,3-oxazolidin-5-yl}methyl)amino]-2-oxoethyl L-prolinate hydrochloride], in data set [1] (buffer pH 4, 37° C.), the “% test substance after 4 h” value is recorded as 100% and the “% Test substance after 24 h” value amounted to 100%. Besides, in data set [1] (buffer pH 7.4, 37° C.), the “% test substance after 4 h” value is reported as 31% and the “% Test substance after 24 h” value was 0%. The solubility at 24 h in data set [2] is 480 µg/mL.
In the case of `CNCC(=O)OCC(=O)N(C[C@H]1CN(c2ccc(N3CCOCC3=O)cc2)C(=O)O1)C(=O)c1ccc(Cl)s1` [Example 5, 2-[[(5-Chloro-2-thienyl)carbonyl]({(5S)-2-oxo-3-[4-(3-oxomorpholin-4-yl)phenyl]-1,3-oxazolidin-5-yl}methyl)amino]-2-oxoethyl N-methylglycinate hydrochloride], in data set [1] (buffer pH 4, 37° C.), the “% test substance after 4 h” value was 100% and the “% Test substance after 24 h” value was 94%. For the same molecule, in data set [1] (buffer pH 7.4, 37° C.), the “% test substance after 4 h” value is 68% and the “% Test substance after 24 h” value came out at 14%. In addition, the solubility at 24 h in data set [2] came to 330 µg/mL.
With `NCCCC[C@H](N)C(=O)OCC(=O)N(C[C@H]1CN(c2ccc(N3CCOCC3=O)cc2)C(=O)O1)C(=O)c1ccc(Cl)s1` [Example 7, 2-[[(5-Chloro-2-thienyl)carbonyl]({(5S)-2-oxo-3-[4-(3-oxomorpholin-4-yl)phenyl]-1,3-oxazolidin-5-yl}methyl)amino]-2-oxoethyl L-lysinate dihydrochloride], in data set [1] (buffer pH 4, 37° C.), the “% test substance after 4 h” value worked out at 100% and the “% Test substance after 24 h” value was found to be 99%. Moreover, in data set [1] (buffer pH 7.4, 37° C.), the “% test substance after 4 h” value is reported as 48% and the “% Test substance after 24 h” value turned out to be 3%. This molecule displayed a solubility at 24 h in data set [2] of 340 µg/mL.
In the case of `N[C@@H](Cc1c[nH]cn1)C(=O)OCC(=O)N(C[C@H]1CN(c2ccc(N3CCOCC3=O)cc2)C(=O)O1)C(=O)c1ccc(Cl)s1` [Example 8, 2-[[(5-Chloro-2-thienyl)carbonyl]({(5S)-2-oxo-3-[4-(3-oxomorpholin-4-yl)phenyl]-1,3-oxazolidin-5-yl}methyl)amino]-2-oxoethyl L-histidinate dihydrochloride], the “% test substance after 4 h” value in data set [1] (buffer pH 4, 37° C.) is listed as 99%; in data set [1] (buffer pH 7.4, 37° C.) it was 2%. Moreover, the “% Test substance after 24 h” value in data set [1] (buffer pH 4, 37° C.) turned out to be 81%; in data set [1] (buffer pH 7.4, 37° C.) it was 0%.
With `CC(C)[C@H](N)C(=O)SCC(=O)N(C[C@H]1CN(c2ccc(N3CCOCC3=O)cc2)C(=O)O1)C(=O)c1ccc(Cl)s1` [Example 10, S-{2-[[(5-Chloro-2-thienyl)carbonyl]({(5S)-2-oxo-3-[4-(3-oxomorpholin-4-yl)phenyl]-1,3-oxazolidin-5-yl}methyl)amino]-2-oxoethyl}(2S)-2-amino-3-methylbutanethioate hydrobromide], the “% test substance after 4 h” value in data set [1] (buffer pH 4, 37° C.) is 100%; in data set [1] (buffer pH 7.4, 37° C., hydrobromide), 8%. Also, the “% Test substance after 24 h” value in data set [1] (buffer pH 4, 37° C.) worked out at 99%; in data set [1] (buffer pH 7.4, 37° C.), 0%. The solubility at 24 h in data set [2] was 680 µg/mL.
In the case of `CNCCCCC(=O)N(C[C@H]1CN(c2ccc(N3CCOCC3=O)cc2)C(=O)O1)C(=O)c1ccc(Cl)s1` [Example 14, 5-Chloro-N-[5-(methylamino)pentanoyl]-N-({(5S)-2-oxo-3-[4-(3-oxomorpholin-4-yl)phenyl]-1,3-oxazolidin-5-yl}methyl)thiophene-2-carboxamide hydrobromide], the “% test substance after 4 h” value in data set [1] (setting [3]) is reported as 57%; in data set [1] (buffer pH 7.4, 37° C.), 0%. Also, the “% Test substance after 24 h” value in data set [1] (setting [3]) is reported as 0%; in data set [1] (buffer pH 7.4, 37° C.), 0%.
`CNCCCCCC(=O)N(C[C@H]1CN(c2ccc(N3CCOCC3=O)cc2)C(=O)O1)C(=O)c1ccc(Cl)s1` [Example 18, 5-Chloro-N-[6-(methylamino)hexanoyl]-N-({(5S)-2-oxo-3-[4-(3-oxomorpholin-4-yl)phenyl]-1,3-oxazolidin-5-yl}methyl)thiophene-2-carboxamide hydrochloride]: in data set [1] (buffer pH 4, 37° C.), the “% test substance after 4 h” value is listed as 100% and the “% Test substance after 24 h” value was determined as 99%.
Regarding `NCCCC(=O)N(C[C@H]1CN(c2ccc(N3CCOCC3=O)cc2)C(=O)O1)C(=O)c1ccc(Cl)s1` [Example 19, N-(4-Aminobutanoyl)-5-chloro-N-({(5S)-2-oxo-3-[4-(3-oxomorpholin-4-yl)phenyl]-1,3-oxazolidin-5-yl}methyl)thiophene-2-carboxamide hydrochloride], in data set [1] (buffer pH 4, 37° C.), the “% test substance after 4 h” value is 100% and the “% Test substance after 24 h” value is reported as 97%. For the same molecule, in data set [1] (buffer pH 7.4, 37° C.), the “% test substance after 4 h” value stood at 0% and the “% Test substance after 24 h” value came out at 0%.
In data set [2], `O=C(NC[C@H]1CN(c2ccc(N3CCOCC3=O)cc2)C(=O)O1)c1ccc(Cl)s1` [compound (A), 5-Chloro-N-({(5S)-2-oxo-3-[4-(3-oxomorpholin-4-yl)phenyl]-1,3-oxazolidin-5-yl}methyl)thiophene-2-carboxamide, reference compound] yielded a solubility at 24 h of 8.1 µg/mL (≈ 18.6 µM).
